US8916702B2 (priority 2012, dated 2014)
Read-outs that look alike come from different tables or passages of the source.

Test system: HCV pseudoparticles (genotype 1a HCV E1 and E2 envelope, H77C isolate)
Test: microbe, parasite or virus in culture
Type: cell-based
Conditions: Hepatitis C virus
[1] = Huh-7, 48 h, read-out: Activity (EC50 class), HCV pseudoparticles, Huh7 cells, luciferase 2 days after infection, average of duplicates
[2] = Huh-7, read-out: Activity (EC50 class), HCV pseudoparticles (genotype 1a, H77C) in Huh7 cells, EC50 expressed as class A/B
[3] = Huh-7, 48 h, read-out: Activity (EC50 class), HCV pseudoparticle infection of Huh7 cells, luciferase 2 days after infection, EC50 expressed as class A/B
[4] = Huh-7, 48 h, HCV pseudoparticles, Huh7 cells, luciferase 2 days after infection, average of duplicates
[5] = Huh-7, 48 h, HCV pseudoparticle infection of Huh7 cells, luciferase 2 days after infection, average of duplicates

SMILES	EC50 [2] [nM]	EC50 [3] [nM]	further results
O=C(NCC[C@H](NC(=O)c1ccc(Nc2nc(NC3(c4ccc(Cl)cc4)CC3)nc(OCC(F)(F)F)n2)cc1)C(=O)O)C(=O)Nc1cccc(CCc2ccccn2)c1 [Compound 3638]	–	–	EC50 [1]: 0.01 to 10 nM
CCOC(=O)/C=C/c1ccc(NC(=O)C(=O)NCC(C)(C)CNC(=O)c2ccc(Nc3nc(NC4(c5ccc(Cl)cc5)CC4)nc(OCC(F)(F)F)n3)cc2)cc1 [Compound 3144]	0.01 to 10	–	–
COC(=O)[C@H](CCNC(=O)C(=O)Nc1cc(F)c(F)cc1F)NC(=O)c1ccc(Nc2nc(NC3(c4ccc(Cl)cc4)CC3)nc(OCC(F)(F)F)n2)cc1 [Compound 1510]	–	0.01 to 10	–
O=C(Nc1ccccc1)C(=O)N1CCCC(CNC(=O)c2ccc(Nc3nc(NC4(c5ccc(Cl)cc5)CC4)nc(OCC(F)(F)F)n3)cc2)C1 (centres unmarked) [Compound 3488]	0.01 to 10	–	–
O=C(NCC[C@@H](NC(=O)c1ccc(Nc2nc(NC3(c4ccc(Cl)cc4)CC3)nc(OCC(F)(F)F)n2)cc1)C(=O)O)C(=O)Nc1cc(F)c(F)c(F)c1F [Compound 3051]	0.01 to 10	–	–
Cc1c(Cl)ccc2sc(NC(=O)C(=O)NCC(C)(C)CNC(=O)c3ccc(Nc4nc(NC5(c6ccc(Cl)cc6)CC5)nc(OCC(F)(F)F)n4)cc3)nc12 [Compound 3817]	–	–	EC50 [4]: 0.11 nM; EC50 [1]: 0.01 to 10 nM
O=C(NCCC(NC(=O)c1ccc(Nc2nc(NC3(c4ccc(Cl)cc4)CC3)nc(OCC(F)(F)F)n2)cc1)C(=O)O)C(=O)Nc1ccc(Cn2cccn2)cc1 (centres unmarked) [Compound 3533]	0.01 to 10	–	–
Cc1ccc(NC(=O)C(=O)NCCCCNC(=O)c2ccc(Nc3nc(NC4(c5ccc(Cl)cc5)CC4)nc(OCC(F)(F)F)n3)cc2)cc1 [Compound 3393]	0.01 to 10	–	–
COC(=O)[C@H](CCNC(=O)C(=O)Nc1ccccc1F)NC(=O)c1ccc(Nc2nc(NC3(c4ccc(Cl)cc4)CC3)nc(OCC(F)(F)F)n2)cc1 [Compound 1231]	–	0.01 to 10	–
COC(=O)[C@H](CCNC(=O)C(=O)Nc1ccc(F)cc1)NC(=O)c1ccc(Nc2nc(NC3(c4ccc(Cl)cc4)CC3)nc(OCC(F)(F)F)n2)cc1 [Compound 1230]	–	0.01 to 10	–
O=C(NC[C@H](NC(=O)c1ccc(Nc2nc(NC3(c4ccc(Cl)cc4)CC3)nc(OCC(F)(F)F)n2)cc1)C(=O)Cl)C(=O)Nc1cccc(C(=O)Nc2ccccc2)c1 [Compound 3747]	–	–	EC50 [1]: 0.01 to 10 nM
COC(=O)[C@H](CCNC(=O)C(=O)Nc1ccc(C(C)(C)C)cc1)NC(=O)c1ccc(Nc2nc(NC3(c4ccc(Cl)cc4)CC3)nc(OCC(F)(F)F)n2)cc1 [Compound 3329]	0.01 to 10	–	–
COC(=O)[C@@H](CCNC(=O)C(=O)Nc1cccc(Oc2ccccc2)c1)NC(=O)c1ccc(Nc2nc(NC3(c4ccc(Cl)cc4)CC3)nc(OCC(F)(F)F)n2)cc1 [Compound 3578]	0.01 to 10	–	–
COC(=O)[C@H](CCNC(=O)C(=O)Nc1ccc(CN2CCCCC2)cc1)NC(=O)c1ccc(Nc2nc(NC3(c4ccc(Cl)cc4)CC3)nc(OCC(F)(F)F)n2)cc1 [Compound 3313]	0.01 to 10	–	–
CC(C)(CNC(=O)C(=O)Nc1ccc(-c2ccc(C(F)(F)F)cc2)cc1)CNC(=O)c1ccc(Nc2nc(NC3(c4ccc(Cl)cc4)CC3)nc(OCC(F)(F)F)n2)cc1 [Compound 1594]	–	0.01 to 10	EC50 [5]: 0.05 nM
CC(CNC(=O)C(=O)NCC[C@H](NC(=O)c1ccc(Nc2nc(NC3(c4ccc(Cl)cc4)CC3)nc(OCC(F)(F)F)n2)cc1)C(=O)O)c1ccccc1 (some centres unmarked) [Compound 1327]	–	0.01 to 10	–
CC(C)(CNC(=O)C(=O)Nc1cc(F)c(F)c(F)c1)CNC(=O)c1ccc(Nc2nc(NC3(c4ccc(Cl)cc4)CC3)nc(OCC(F)(F)F)n2)cc1 [Compound 1558]	–	0.01 to 10	–
Cc1ccc(CNC(=O)C(=O)NCC[C@H](NC(=O)c2ccc(Nc3nc(NC4(c5ccc(Cl)cc5)CC4)nc(OCC(F)(F)F)n3)cc2)C(=O)O)cc1F [Compound 1191]	–	0.01 to 10	EC50 [5]: 0.17 nM

SMILES	EC50 [2] [nM]	EC50 [3] [nM]	further results
COC(=O)[C@@H](CCNC(=O)C(=O)Nc1cccc(C(=O)c2ccccc2)c1)NC(=O)c1ccc(Nc2nc(NC3(c4ccc(Cl)cc4)CC3)nc(OCC(F)(F)F)n2)cc1 [Compound 3576]	0.01 to 10	–	–
CC(C)(CNC(=O)C(=O)Nc1ccc(OC(F)F)cc1)CNC(=O)c1ccc(Nc2nc(NC3(c4ccc(Cl)cc4)CC3)nc(OCC(F)(F)F)n2)cc1 [Compound 3146]	0.01 to 10	–	EC50 (Huh-7, 48 h, HCV pseudoparticles (genotype 1a, H77C) in Huh7 cells, average of duplicate, luciferase 2 days after infection): 0.05 nM
O=C(NCC[C@H](NC(=O)c1ccc(Nc2nc(NC3(c4ccc(Cl)cc4)CC3)nc(OCC(F)(F)F)n2)cc1)C(=O)O)C(=O)Nc1cccc(-c2ncc[nH]2)c1 [Compound 3634]	–	–	EC50 [1]: 0.01 to 10 nM
CC(C)(CNC(=O)C(=O)Nc1nccs1)CNC(=O)c1ccc(Nc2nc(NC3(c4ccc(Cl)cc4)CC3)nc(OCC(F)(F)F)n2)cc1 [Compound 1547]	–	0.01 to 10	EC50 [5]: 0.06 nM
O=C(NC[C@H](NC(=O)c1ccc(Nc2nc(NC3(c4ccc(Cl)cc4)CC3)nc(OCC(F)(F)F)n2)cc1)C(=O)Cl)C(=O)Nc1cccc(Oc2cccnc2)c1 [Compound 3792]	–	–	EC50 [1]: 0.01 to 10 nM
O=C(NCC[C@H](NC(=O)c1ccc(Nc2nc(NC3(c4ccc(Cl)cc4)CC3)nc(OCC(F)(F)F)n2)cc1)C(=O)O)C(=O)NCC1OCCc2ccccc21 (some centres unmarked) [Compound 1341]	–	0.01 to 10	–
COC(=O)[C@H](CCNC(=O)C(=O)Nc1ccc(O)nc1)NC(=O)c1ccc(Nc2nc(NC3(c4ccc(Cl)cc4)CC3)nc(OCC(F)(F)F)n2)cc1 [Compound 1520]	–	0.01 to 10	–
CNS(=O)(=O)c1cccc(NC(=O)C(=O)NC[C@H](NC(=O)c2ccc(Nc3nc(NC4(c5ccc(Cl)cc5)CC4)nc(OCC(F)(F)F)n3)cc2)C(=O)Cl)c1 [Compound 3782]	–	–	EC50 [1]: 0.01 to 10 nM
O=C(NCC[C@H](NC(=O)c1ccc(Nc2nc(NC3(c4ccc(Cl)cc4)CC3)nc(OCC(F)(F)F)n2)cc1)C(=O)O)C(=O)Nc1cccc(CN2CCCC2)c1 [Compound 3647]	–	–	EC50 [1]: 0.01 to 10 nM
O=C(NCCc1cccc(F)c1)C(=O)NCC[C@H](NC(=O)c1ccc(Nc2nc(NC3(c4ccc(Cl)cc4)CC3)nc(OCC(F)(F)F)n2)cc1)C(=O)O [Compound 1333]	–	0.01 to 10	–
CN(C(=O)C(=O)NCC[C@H](NC(=O)c1ccc(Nc2nc(NC3(c4ccc(Cl)cc4)CC3)nc(OCC(F)(F)F)n2)cc1)C(=O)O)c1ccccc1 [Compound 1277]	–	0.01 to 10	–
COC(=O)[C@H](CCNC(=O)C(=O)NC(c1ccc(OC)cc1)C1CC1)NC(=O)c1ccc(Nc2nc(NC3(c4ccc(Cl)cc4)CC3)nc(OCC(F)(F)F)n2)cc1 (some centres unmarked) [Compound 1418]	–	0.01 to 10	EC50 [5]: 0.28 nM
O=C(NCC1CCCc2ccccc21)C(=O)NC[C@@H](NC(=O)c1ccc(Nc2nc(NC3(c4ccc(Cl)cc4)CC3)nc(OCC(F)(F)F)n2)cc1)C(=O)O (some centres unmarked) [Compound 1410]	–	0.01 to 10	–
COC(=O)[C@H](CCNC(=O)C(=O)Nc1ccncc1)NC(=O)c1ccc(Nc2nc(NC3(c4ccc(Cl)cc4)CC3)nc(OCC(F)(F)F)n2)cc1 [Compound 1236]	–	0.01 to 10	–
Cc1ccc(-c2ccc(NC(=O)C(=O)NCC(C)(C)CNC(=O)c3ccc(Nc4nc(NC5(c6ccc(Cl)cc6)CC5)nc(OCC(F)(F)F)n4)cc3)cc2)cc1 [Compound 1565]	–	0.01 to 10	EC50 [5]: 0.13 nM
COc1ccccc1-c1ccccc1NC(=O)C(=O)NCC(C)(C)CNC(=O)c1ccc(Nc2nc(NC3(c4ccc(Cl)cc4)CC3)nc(OCC(F)(F)F)n2)cc1 [Compound 3050]	0.01 to 10	–	–
CC(C)(CNC(=O)C(=O)Nc1nc2c(F)cccc2s1)CNC(=O)c1ccc(Nc2nc(NC3(c4ccc(Cl)cc4)CC3)nc(OCC(F)(F)F)n2)cc1 [Compound 3824]	–	–	EC50 [4]: 0.077 nM; EC50 [1]: 0.01 to 10 nM
CC(C)(CNC(=O)C(=O)Nc1cccc(CC(=O)O)c1)CNC(=O)c1ccc(Nc2nc(NC3(c4ccc(Cl)cc4)CC3)nc(OCC(F)(F)F)n2)cc1 [Compound 1480]	–	0.01 to 10	–
